According to US11655235B2, “Pyrrolidine and piperidine compounds” (YUHAN CORPORATION, priority 2019, dated 2023):

These molecules were tested against T1, Recombinant human FAP (Homo sapiens, UniProt Q12884) (assay: FAP inhibition, fluorogenic substrate Z-Gly-Pro-AMC). Conditions: 25° C., Z-Gly-Pro-AMC substrate.
T1 construct: purchased R&D systems
T1 sequence (Q12884 1-760): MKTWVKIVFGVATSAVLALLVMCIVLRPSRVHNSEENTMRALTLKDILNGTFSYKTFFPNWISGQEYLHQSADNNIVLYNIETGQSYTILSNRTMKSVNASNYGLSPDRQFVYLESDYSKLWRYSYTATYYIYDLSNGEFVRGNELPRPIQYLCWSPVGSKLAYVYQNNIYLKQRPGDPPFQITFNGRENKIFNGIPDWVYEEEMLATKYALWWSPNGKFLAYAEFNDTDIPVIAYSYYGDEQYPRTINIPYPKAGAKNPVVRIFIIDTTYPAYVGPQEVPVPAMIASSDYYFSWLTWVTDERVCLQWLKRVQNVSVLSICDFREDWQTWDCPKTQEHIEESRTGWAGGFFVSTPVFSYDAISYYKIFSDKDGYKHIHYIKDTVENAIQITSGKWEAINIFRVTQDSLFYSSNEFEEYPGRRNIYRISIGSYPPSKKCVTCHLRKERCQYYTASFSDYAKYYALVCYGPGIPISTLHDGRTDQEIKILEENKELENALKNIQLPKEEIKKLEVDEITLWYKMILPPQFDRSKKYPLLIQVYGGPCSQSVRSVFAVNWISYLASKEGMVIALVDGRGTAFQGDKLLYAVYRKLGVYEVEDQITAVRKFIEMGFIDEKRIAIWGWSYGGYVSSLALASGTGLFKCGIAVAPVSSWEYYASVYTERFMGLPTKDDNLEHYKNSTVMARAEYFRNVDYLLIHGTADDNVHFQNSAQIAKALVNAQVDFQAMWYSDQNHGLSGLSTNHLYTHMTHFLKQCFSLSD
Type: biochemical
Procedure: The compounds according to the present technology were evaluated in terms of the inhibitory effect on the activity of dipeptidyl peptidases including FAP by using a substrate producing fluorescent substances upon enzymatic decomposition. The test was conducted at 25° C. to get a final reaction volume of 100 μL in a 96 black well plate. […] Briefly, the test compounds were dissolved in dimethyl sulfoxide (DMSO) at a concentration of 20 mM and then subjected to serial dilution, thereby creating an 8 point curve. As for the control group, a 6 point curve created by serial dilution of Talabostat in the same buffer solution was used. Fluorescence intensity was measured using a microplate reader (Flexstation3, Molecular Devices) under the wavelength condition exciting at 380 nm and reading the emission at 460 nm. The inhibitory effect of the test compounds was measured as a decrease (%) in the signal rate as compared to the control group without any inhibitor. Data was fixed to a logistic model with four variables and IC50 value was calculated using GraphPad Prism program. Recombinant human FAP (R&D systems) was diluted with 50 mM tris (pH 7.5) buffer comprising 1 M of sodium chloride and 1 mg/ml of bovine serum albumin (BSA) to be 10 ng per final reaction. The test compounds were subjected to serial dilution in a buffer under the condition containing up to 0.1% of DMSO. Z-Gly-Pro-AMC (Bachem) was used as a substrate. By dissolving in DMSO and then diluting in the same buffer, the substrate was added to be […] per final reaction.

First: CN(c1ccc2ccccc2n1)[C@@H]1CCN(CC(=O)N2CCC[C@H]2C#N)C1 [Example 137, (2S)-1-[2-[(3R)-3-[methyl(2-quinolyl)amino]pyrrolidin-1-yl]acetyl]pyrrolidine-2-carbonitrile]
Second: CN(c1ccnc2ccccc12)[C@H]1CCN(CC(=O)N2CCC[C@H]2C#N)C1 [Example 143, (2S)-1-[2-[(3S)-3-[methyl(4-quinolyl)amino]pyrrolidin-1-yl]acetyl]pyrrolidine-2-carbonitrile]
The IC50 of the first is 1.6-fold higher: 86.1 nM for the first, 55.4 nM for the second.

Going from `CN(c1ccc2cccnc2c1)[C@@H]1CCN(CC(=O)N2CCC[C@H]2C#N)C1` [Example 141, (2S)-1-[2-[(3R)-3-[methyl(7-quinolyl)amino]pyrrolidin-1-yl]acetyl]pyrrolidine-2-carbonitrile] to `CN(c1cncc2ccccc12)[C@H]1CCN(CC(=O)N2CCC[C@H]2C#N)C1` [Example 147, (2S)-1-[2-[(3S)-3-[4-isoquinolyl(methyl)amino]pyrrolidin-1-yl]acetyl]pyrrolidine-2-carbonitrile], the IC50 falls from 34.1 nM to 14.7 nM (2.3-fold). The second is the more potent here.

Same assay, conditions: recombinant human FAP, substrate Z-Gly-Pro-AMC

First: N#C[C@@H]1CCCN1C(=O)CN1CC[C@@H](Nc2ccc3cccnc3c2)C1 [Example 163, (2S)-1-[2-[(3R)-3-(7-quinolylamino)pyrrolidin-1-yl]acetyl]pyrrolidine-2-carbonitrile]
Second: N#C[C@@H]1C[C@H](F)CN1C(=O)CN1CC[C@@H](Nc2ccc3cccnc3c2)C1 [Example 168, (2S,4S)-4-fluoro-1-[2-[(3R)-3-(7-quinolylamino)pyrrolidin-1-yl]acetyl]pyrrolidine-2-carbonitrile]
The IC50 of the first is 2.5-fold higher: 29 nM for the first, 11.5 nM for the second.

Going from `N#C[C@@H]1CCCN1C(=O)CN1CC[C@@H](Nc2cccc3cccnc23)C1` [Example 164, (2S)-1-[2-[(3R)-3-(8-quinolylamino)pyrrolidin-1-yl]acetyl]pyrrolidine-2-carbonitrile] to `N#C[C@@H]1C[C@H](F)CN1C(=O)CN1CC[C@@H](Nc2cccc3cccnc23)C1` [Example 169, (2S,4S)-4-fluoro-1-[2-[(3R)-3-(8-quinolylamino)pyrrolidin-1-yl]acetyl]pyrrolidine-2-carbonitrile], the IC50 falls from 56.8 nM to 35.4 nM (1.6-fold). The second is the more potent here.
